The conditions of this data set: Crystal; visual observation.

Numbers after ± are expanded uncertainties.

On to `[Cl-].c1ccc([P+](c2ccccc2)(c2ccccc2)c2ccccc2)cc1` [tetraphenylphosphonium chloride], for which the Normal melting temperature was 276.50 ± 0.9 °C.

Source of the values: the NIST ThermoML archive (doi:10.1021/acs.jced.5b00770).
